Source: patent US6057333A, “Discorhabdin compounds and methods of use” (Harbor Branch Oceanographic Institution, Inc., priority 1998, dated 2000)
≈ marks a conversion by molar mass, not a printed value.

Experiments:
A549 cells = test: A549 antiproliferative (MTT) assay; format: cell-based; details: Homo sapiens, additional 48 hr exposure prior to MTT addition
Experimental: (§1) P388 cells are obtained from Dr. J. Mayo, National Cancer Institute, Bethesda, Md., and A549 cells are obtained from American Type Culture Collection, Rockville, Md. All cell lines are maintained in Roswell Park Memorial Institute (RPMI) medium 1640 supplemented with 10% horse serum. All cell lines are cultured in plastic tissue culture flasks and kept in an incubator at 37° C. in humidified air containing 5% CO2. Prior to testing, antibiotic-free stock cultures of each of the cell lines are subcultured to 10^6 cells/ml by dilution in fresh growth medium at 2 to 3 day intervals.
(§2) To assess the antiproliferative effects of agents against the P388 cell line, 200 μl cultures (96-well tissue culture plates, Nunc, Denmark) are established at 1×10^5 cells/ml in drug-free medium or medium containing the test agent at 10.0, 1.0, 0.10 and 0.010 μg/ml. Solvent for all dilutions ethanol. All experimental cultures are initiated in medium containing Gentamycin sulfate (50 μg/ml; Schering Corporation, Kenilworth, N.J.). After48 hr exposures, P388 cells are enumerated using 3-[4,5-Dimethylthiazol-2-yl]-2,5-diphenyltetrazolium bromide (MTT).
[…] Results are expressed as percent inhibition compared to the negative (no drug) control. Positive drug controls are included to monitor drug sensitivity of each of the cell lines. […]

P388 cells = test: P388 antiproliferative (MTT) assay; format: cell-based; details: Mus musculus, 48 hr exposure
Experimental: as §1, §2
To quantitate the effects on cell proliferation and resulting IC50 values, 75 μl of warm growth media containing 5 mg/ml MTT is added to each well, cultures returned to the incubator, and left undisturbed for 90 minutes. […]

calcineurin = target: T1, calcineurin (Bos taurus, UniProt P48452); test: Calcineurin assay (p-nitrophenylphosphate phosphatase activity); format: biochemical, bovine; details: pH 7.5, 30° C., 60 min
T1 construct: Calcineurin was prepared from bovine brain; from tissue; host or cells: bovine brain
Experimental: Calmodulin was prepared from bovine brain according to the method of Wallace et al. ([1983] Meth. Enzymol. 102:39-47). The calmodulin was either used directly or coupled to sepharose-4B to form the calmodulin-sepharoseaffinity column necessary for the isolation of calcineurin. Calcineurin was prepared from bovine brain by the method of Tallant et al. ([1983] Meth. Enzymol. 102:244-286), concentrated, aliquoted and stored at -80° C.
Calcineurin activity was assayed in 96-well microtiter plates in a final volume of 50 μl. Each well contained 50 mM Tris-HCl pH 7.5, 0.5 mM MnCl2, 0.05 mM CaCl2, 1 mM DTT, 50 mM p-nitrophenylphosphate (pNPP), 0.3 μg calcineurin, a five-fold excess of calmodulin, and either test samples or control compounds. Plates were incubated at 30° C. for 60 min. Liberated p-nitrophenol was determined by the change in absorbance at 405 nm.

CPP32 = target: T2, CPP32 (Homo sapiens, UniProt P42574); test: Caspase inhibition (CPP32, Ac-DEVD-pNA substrate); format: biochemical; details: Ac-DEVD-pNA 25 μM, pH 7.5, 30 degrees C., 30 minutes
T2 construct: BASF, Worchester, Mass; (gift, not a purchase)
T2 sequence (P42574 29-175 limits assumed): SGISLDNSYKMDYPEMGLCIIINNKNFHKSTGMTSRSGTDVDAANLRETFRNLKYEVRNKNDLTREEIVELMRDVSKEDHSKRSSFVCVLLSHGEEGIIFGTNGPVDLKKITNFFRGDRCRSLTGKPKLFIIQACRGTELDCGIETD
T2 sequence (P42574 176-277 limits assumed): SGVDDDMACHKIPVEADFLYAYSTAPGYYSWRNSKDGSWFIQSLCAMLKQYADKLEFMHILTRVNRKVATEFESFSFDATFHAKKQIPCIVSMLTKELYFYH
Experimental: Test samples were aliquoted into 96 well microtiter plates and allowed to air dry. The stock CPP32 enzyme (kindly supplied by BASF, Worchester, Mass.) was diluted by adding 10 μl of the enzyme to 17 ml of reaction buffer (50 mM Hepes pH 7.5; 10% glycerol; 5 mM Dithiothreitol; 0.5 mM EDTA). A volume of 180 μl of the diluted enzyme was added to wells containing the dried test samples, or to empty wells (control). The contents of the microtiter wells were mixed by shaking on a plate shaker. Plates were incubated at 30 degrees C. for 5 minutes. […] Controls for each plate consisted of an inhibitor control (50 nM DEVD-CHO final concentration); positive control (enzyme and substrate) and negative control (reaction buffer and substrate). The plates were covered with aluminum foil and mixed using a plate shaker for 5 minutes then incubated at 30 degrees C. for 30 minutes. Plates were read using on a plate reader with absorbance measured at 405 nm. Data was expressed as percent inhibition by comparing the absorbance values of test samples with those of the positive control (no sample).

T1 sequence (P63099 2-170, other chains not shown): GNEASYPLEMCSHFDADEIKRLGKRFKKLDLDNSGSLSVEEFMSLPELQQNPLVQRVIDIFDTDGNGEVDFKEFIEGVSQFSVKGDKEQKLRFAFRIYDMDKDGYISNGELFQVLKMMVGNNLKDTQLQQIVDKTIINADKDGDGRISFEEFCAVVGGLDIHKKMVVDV

Structure (SMILES): Cn1cc2c3c1C(=O)C1=C(C3=NCC2)C2(C=C(Br)C(=O)C(Br)=C2)CCN1 [discorhabdin P]
- IC50 (A549 cells): 0.41 µg/mL
- IC50 (P388 cells): 0.025 µg/mL
- inhibition at 0.5 µg/mL (calcineurin; at 0.5 μg/ml): 33%
- inhibition at 5 µg/mL (calcineurin; at 5 μg/ml): 64%
- IC50 (calcineurin): 1150 nM
- IC50 (CPP32): 0.37 µg/mL (≈ 0.775 µM)
